Laboratory results: US8871767B2, “2-arylimidazo[1,2-B]pyridazine, 2-phenylimidazo[1,2-A]pyridine, and 2-phenylimidazo[1,2-A]pyrazine derivatives” (Hengrui (USA) Ltd., priority 2010, dated 2014)

Test system: Hedgehog pathway activation (GLi-luciferase reporter) in Shh Light II reporter cells
Test: Hedgehog pathway activation on Shh Light II reporter cells measured by luciferase activity
Type: cell-based
Settings: Mus musculus, Shh Light II, hShh activation, read-out: Shh (IC50, inhibition of Hedgehog pathway activation)
Procedure: Hedgehog conditioned media was obtained by transfecting 293H cells with the full length gene encoding human Sonic Hedgehog (hShh) inserted into the pCMV6 expression vector, which contains a neomycin selectable marker and expresses the protein of interest with a C-terminal FLAG affinity tag. After selection in G418 containing media, conditioned media from Hedgehog expressing clones were tested for the ability to activate the hedgehog-responsive GLi-luciferase reporter in the Shh Light II cell line obtained by license from John Hopkins University (Taipale J, et al. Effects of oncogenic mutations in Smoothened and Patched can be reversed by cyclopamine. Nature 406: 1005-1009, 2000).
A test compound library was screened against hShh and 500 nM SAG (a direct agonist of the Smoothened receptor) activated 10T1/2/Smo#3 cells and Shh Light II reporter cells for the ability to block Hedgehog pathway activation. Concurrently, cell viability was measured by utilizing Celltiter-Blue® (Promega, Madison Wis.) viability assay. Active compounds were defined as those that inhibited Hedgehog signaling by greater than 50% with no concurrent loss in cell viability.
Their inhibitory activity against Hedgehog pathway activation on 10T1/2/Smo#3 cells as measured by ALP activity and Shh Light II reporter cells as measured by luciferase activity is shown in Table 1 below. In Table 1, +++ stands for an IC50 value that is less than 0.3 μM, ++ between 0.3 and 3 μM, + between 3 and 30 μM.
Additional data for compounds of the invention is shown below in Table 2. Their inhibitory activities against Hedgehog pathway activation are shown as IC50 values in μM on 10T1/2/Smo#3 cells as measured by ALP activity, or on Shh Light II reporter cells as measured by luciferase activity (hShh activation).

## Cc1ccc(-c2cn3nc(-c4ccc(Cl)nc4)ccc3n2)cc1NC(=O)C(C)(C)C [Example 408, N-(5-(6-(6-chloropyridin-3-yl)imidazo[1,2-b]pyridazin-2-yl)-2-methylphenyl)pivalamide]
  IC50: 340 nM

## CC(C)(C)C(=O)Nc1cc(-c2cn3nc(N4CCNCC4)ccc3n2)ccc1C(F)(F)F [Example 328, N-(5-(6-(piperazin-1-yl)imidazo[1,2-b]pyridazin-2-yl)-2-(trifluoromethyl)phenyl)pivalamide]
  IC50: 3540 nM

## Cc1ccc(-c2cn3nc(-c4ccc(C(=O)O)cn4)ccc3n2)cc1NC(=O)C(C)(C)C [Example 459, 6-(2-(4-methyl-3-pivalamidophenyl)imidazo[1,2-b]pyridazin-6-yl)nicotinic acid]
  IC50: 9290 nM

## CC1CNCCN1c1ccc2nc(-c3ccc(C(F)(F)F)c(NC(=O)C(C)(C)C)c3)cn2n1 (stereo not drawn) [Example 329, N-(5-(6-(2-methylpiperazin-1-yl)imidazo[1,2-b]pyridazin-2-yl)-2-(trifluoromethyl)phenyl)pivalamide]
  IC50: 2020 nM

## CC(C)(C)C(=O)Nc1cc(-c2cn3nc(-c4cccc(S(C)(=O)=O)c4)ccc3n2)ccc1C(F)(F)F [Example 325, N-(5-(6-(3-(methylsulfonyl)phenyl)imidazo[1,2-b]pyridazin-2-yl)-2-(trifluoromethyl)phenyl)pivalamide]
  IC50: 740 nM

## COC(=O)CCCCCCC(=O)Nc1cc(-c2cn3nc(-c4cccnc4C(F)(F)F)ccc3n2)ccc1C [Example 420, methyl 8-(2-methyl-5-(6-(2-(trifluoromethyl)pyridin-3-yl)imidazo[1,2-b]pyridazin-2-yl)phenylamino)-8-oxooctanoate]
  IC50: 1370 nM

## CCOC(=O)C=Cc1cccc(C(=O)Nc2cc(-c3cn4nc(C=CC(=O)OCC)ccc4n3)ccc2C)c1 [compound 610]
  IC50: 465 nM

## COC(=O)CN(C(=O)C(C)(C)C)c1cc(-c2cn3nc(-c4cccnc4C(F)(F)F)ccc3n2)ccc1C [compound 515, methyl 2-(N-(2-methyl-5-(6-(2-(trifluoromethyl)pyridin-3-yl)imidazo[1,2-b]pyridazin-2-yl)phenyl)pivalamido)acetate]
  IC50: 911 nM

## CNC(=O)c1ccc(-c2ccc3nc(-c4ccc(C)c(NC(=O)C(C)(C)C)c4)cn3n2)cc1 [compound 525]
  IC50: 441 nM

## CC(C)(C)C(=O)Nc1cc(-c2cn3nc(-c4cncc(N)c4)ccc3n2)ccc1C(F)(F)F [Example 343, N-(5-(6-(5-aminopyridin-3-yl)imidazo[1,2-b]pyridazin-2-yl)-2-(trifluoromethyl)phenyl)pivalamide]
  IC50: 340 nM

## Cc1ccc(-c2cn3nc(-c4cccnc4C(F)(F)F)ccc3n2)cc1N(C)C(=O)C(C)(C)C [compound 514, N-methyl-N-(2-methyl-5-(6-(2-(trifluoromethyl)pyridin-3-yl)imidazo[1,2-b]pyridazin-2-yl)phenyl)pivalamide]
  IC50: 392 nM

## CNC(=O)c1ccccc1-c1ccc2nc(-c3ccc(C)c(NC(=O)C(C)(C)C)c3)cn2n1 [Example 452, N-methyl-2-(2-(4-methyl-3-pivalamidophenyl)imidazo[1,2-b]pyridazin-6-yl)benzamide]
  IC50: 385 nM

## Cc1ccc(-c2cn3nc(-c4ccc(C(F)(F)F)nc4)ccc3n2)cc1NC(=O)C(C)(C)C [Example 322, N-(2-methyl-5-(6-(6-(trifluoromethyl)pyridin-3-yl)imidazo[1,2-b]pyridazin-2-yl)phenyl)pivalamide]
  IC50: 917 nM

## CCOC(=O)COc1ccc(-c2ccc3nc(-c4ccc(C)c(NC(=O)C(C)(C)C)c4)cn3n2)c(C(F)(F)F)n1 [Example 476, ethyl 2-(5-(2-(4-methyl-3-pivalamidophenyl)imidazo[1,2-b]pyridazin-6-yl)-6-(trifluoromethyl)pyridin-2-yloxy)acetate]
  IC50: 427 nM

## Cc1ccc(-c2cn3nc(-c4ccccc4O)ccc3n2)cc1NC(=O)C(C)(C)C [Example 276, N-(5-(6-(2-hydroxyphenyl)imidazo[1,2-b]pyridazin-2-yl)-2-methylphenyl)pivalamide]
  IC50: 1960 nM

## CCOC(=O)CCCCCCNC1CCN(c2ccc3nc(-c4ccc(C)c(NC(=O)C(C)(C)C)c4)cn3n2)C1 (stereo not drawn) [Example 415, ethyl 7-(1-(2-(4-methyl-3-pivalamidophenyl)imidazo[1,2-b]pyridazin-6-yl)pyrrolidin-3-ylamino)heptanoate]
  IC50: 1760 nM

## CCOC(=O)C=Cc1cccc(C(=O)Nc2cc(-c3cn4nc(Cl)ccc4n3)ccc2C)c1 [compound 609]
  IC50: > 10000 nM

## CCOC(=O)CCCOc1cc(-c2ccc3nc(-c4ccc(C)c(NC(=O)C(C)(C)C)c4)cn3n2)cc(C(F)(F)F)n1 [Example 431, ethyl 4-(4-(2-(4-methyl-3-pivalamidophenyl)imidazo[1,2-b]pyridazin-6-yl)-6-(trifluoromethyl)pyridin-2-yloxy)butanoate]
  IC50: 422 nM

## Cc1ccc(-c2cn3nc(-c4ccc(C(=O)NOC5CCCCO5)cc4)ccc3n2)cc1NC(=O)C(C)(C)C (stereo not drawn) [compound 584]
  IC50: 1900 nM

## Cc1ccc(-c2cn3nc(NCc4cccc(C=CC(=O)NO)c4)ccc3n2)cc1NC(=O)C(C)(C)C [compound 614]
  IC50: 4370 nM

## COc1cccc(-c2ccc3nc(-c4ccc(C(F)(F)F)c(NC(=O)C(C)(C)C)c4)cn3n2)c1 [Example 229, N-(5-(6-(3-methoxyphenyl)imidazo[1,2-b]pyridazin-2-yl)-2-(trifluoromethyl)phenyl)pivalamide]
  IC50: 313 nM

## Cc1ccc(-c2cn3nc(N)ccc3n2)cc1NC(=O)C(C)(C)C [compound 591, N-(5-(6-aminoimidazo[1,2-b]pyridazin-2-yl)-2-methylphenyl)pivalamide]
  IC50: 578 nM

## Cc1ccc(-c2cn3nc(-c4cc(C(F)(F)F)ccn4)ccc3n2)cc1NC(=O)C(C)(C)C [Example 456, N-(2-methyl-5-(6-(4-(trifluoromethyl)pyridin-2-yl)imidazo[1,2-b]pyridazin-2-yl)phenyl)pivalamide]
  IC50: 365 nM

## Cc1ccc(-c2cn3nc(-c4cccnc4C(F)(F)F)ccc3n2)cc1C#N [Example 480, 2-methyl-5-(6-(2-(trifluoromethyl)pyridin-3-yl)imidazo[1,2-b]pyridazin-2-yl)benzonitrile]
  IC50: 5190 nM

## Cc1ccc(-c2cn3nc(-c4ccc(OCCCCC(=O)NO)cc4C(F)(F)F)ccc3n2)cc1NC(=O)C(C)(C)C [Example 454, N-hydroxy-5-(4-(2-(4-methyl-3-pivalamidophenyl)imidazo[1,2-b]pyridazin-6-yl)-3-(trifluoromethyl)phenoxy)pentanamide]
  IC50: 2050 nM

## Cc1ccc(-c2cn3nc(-c4ccc(C#N)cc4C)ccc3n2)cc1NC(=O)C(C)(C)C [compound 574]
  IC50: 364 nM

## CCOC(=O)COc1cc(-c2ccc3nc(-c4ccc(C)c(NC(=O)C(C)(C)C)c4)cn3n2)cc(C(F)(F)F)n1 [Example 475, ethyl 2-(4-(2-(4-methyl-3-pivalamidophenyl)imidazo[1,2-b]pyridazin-6-yl)-6-(trifluoromethyl)pyridin-2-yloxy)acetate]
  IC50: 2610 nM

## Cc1ccc(-c2cn3nc(-c4cccnc4C(F)(F)F)ccc3n2)cc1-c1c(C)noc1C [compound 507]
  IC50: 2500 nM

## CC(C)(C)OC(=O)NC1CCN(c2ccc3nc(-c4ccc(C(F)(F)F)c(NC(=O)C(C)(C)C)c4)cn3n2)CC1 [Example 331, tert-butyl 1-(2-(3-pivalamido-4-(trifluoromethyl)phenyl)imidazo[1,2-b]pyridazin-6-yl)piperidin-4-ylcarbamate]
  IC50: 478 nM

## Cc1ccc(-c2cn3nc(C4=CCCCC4)ccc3n2)cc1NC(=O)C(C)(C)C [Example 443, N-(5-(6-cyclohexenylimidazo[1,2-b]pyridazin-2-yl)-2-methylphenyl)pivalamide]
  IC50: 1880 nM

## Cc1ccc(-c2cn3nc(-c4cc(C=CC(=O)NO)ccc4Cl)ccc3n2)cc1NC(=O)C(C)(C)C [compound 579]
  IC50: 317 nM

## CC(=O)Nc1ccc(-c2ccc3nc(-c4ccc(C)c(NC(=O)C(C)(C)C)c4)cn3n2)cn1 [compound 505, N-(5-(6-(6-acetamidopyridin-3-yl)imidazo[1,2-b]pyridazin-2-yl)-2-methylphenyl)pivalamide]
  IC50: 990 nM

## Cc1ccc(-c2cn3nc(-c4cccnc4C(F)(F)F)ccc3n2)cc1-c1cccc(C(F)(F)F)n1 [Example 441, 2-(4-methyl-3-(6-(trifluoromethyl)pyridin-2-yl)phenyl)-6-(2-(trifluoromethyl)pyridin-3-yl)imidazo[1,2-b]pyridazine]
  IC50: 2560 nM

## Cc1ccc(-c2cn3nc(NCc4ccc(C(=O)NO)cc4)ccc3n2)cc1NC(=O)C(C)(C)C [compound 604]
  IC50: 157 nM

## Cc1ccc(-c2cn3nc(-c4cccc(NC(=O)CCCCCCC(=O)NO)n4)ccc3n2)cc1NC(=O)C(C)(C)C [compound 580, N1-hydroxy-N8-(6-(2-(4-methyl-3-pivalamidophenyl)imidazo[1,2-b]pyridazin-6-yl)pyridin-2-yl)octanediamide]
  IC50: 1320 nM

## Cc1ccc(-c2cn3nc(-c4ccc(C(N)=O)cn4)ccc3n2)cc1NC(=O)C(C)(C)C [compound 538, 6-(2-(4-methyl-3-pivalamidophenyl)imidazo[1,2-b]pyridazin-6-yl)nicotinamide]
  IC50: 430 nM
